Patent US20230374015A1, “INHIBITORS OF FIBROBLAST GROWTH FACTOR RECEPTOR KINASES” (Kinnate Biopharma Inc., priority 2020, published 2023)

Molecular target: FGFR2 (Homo sapiens, UniProt P21802)
Assay: FGFR2 Kinase Protocol - Condition 2 (Reaction Biology HotSpot radiometric kinase assay, no preincubation)
Type: biochemical
Conditions: poly[Glu:Tyr] (4:1) 0.2 mg/ml, ATP 100 microM, 2 hr room temperature
Method: Example 2: FGFR2 Kinase Protocol—Condition 2
The Reaction Biology HotSpot assay platform (http://www.reactionbiology.com) was used to measure kinase/inhibitor interactions as described previously (Anastassiadis et al., 2011). In brief, for each reaction, kinase and substrate were mixed in a buffer containing 20 mM HEPES (pH 7.5), 10 mM MgCl2, 1 mM EGTA, 0.02% Brij35, 0.02 mg/mL BSA, 0.1 mM Na3VO4, 2 mM DTT, and 1% DMSO. All compounds were in powder form and freshly solubilized in DMSO for assays. Compounds were then added to each reaction mixture via acoustic dispense using an ECHO 550 nanoliter dispenser. For Human FGFR2 wildtype testing, a peptide substrate, poly[Glu:Tyr] (4:1) was used to promote the reaction at a concentration of 0.2 mg/ml. For Human FGFR2 (V564F) testing, a peptide substrate, poly[Glu:Tyr] (4:1) was used to promote the reaction at a concentration of 0.2 mg/ml. ATP concentration for all assays was maintained at 100 micromolar. Compounds were tested in 10-dose IC50 mode with a 3-fold serial dilution. Compounds were added to plates and ATP was added directly to the wells. ATP (Sigma-Aldrich, St. Louis, MO 63178) and [g33P] ATP (specific activity 10 microCi/microliter) purchased at PerkinElmer (Boston, MA, 02118 Cat #BLU 003H250UC) were added at a final total concentration of 100 microM to each well with no preincubation. Reactions were carried out at room temperature for 2 hr and spotted onto P81 ion exchange cellulose chromatography paper (Reaction Biology). Filter paper was washed in 0.75% phosphoric acid to remove unincorporated ATP. The percent remaining kinase activity relative to a vehicle-containing (DMSO) kinase reaction was calculated for each kinase/inhibitor pair. IC50 values were calculated using Dotmatics Knowledge Solutions Studies curve fitting (Dotmatics, Bishops Stortford, UK, CM23).

Chain of FGFR2 (P21802 22-821): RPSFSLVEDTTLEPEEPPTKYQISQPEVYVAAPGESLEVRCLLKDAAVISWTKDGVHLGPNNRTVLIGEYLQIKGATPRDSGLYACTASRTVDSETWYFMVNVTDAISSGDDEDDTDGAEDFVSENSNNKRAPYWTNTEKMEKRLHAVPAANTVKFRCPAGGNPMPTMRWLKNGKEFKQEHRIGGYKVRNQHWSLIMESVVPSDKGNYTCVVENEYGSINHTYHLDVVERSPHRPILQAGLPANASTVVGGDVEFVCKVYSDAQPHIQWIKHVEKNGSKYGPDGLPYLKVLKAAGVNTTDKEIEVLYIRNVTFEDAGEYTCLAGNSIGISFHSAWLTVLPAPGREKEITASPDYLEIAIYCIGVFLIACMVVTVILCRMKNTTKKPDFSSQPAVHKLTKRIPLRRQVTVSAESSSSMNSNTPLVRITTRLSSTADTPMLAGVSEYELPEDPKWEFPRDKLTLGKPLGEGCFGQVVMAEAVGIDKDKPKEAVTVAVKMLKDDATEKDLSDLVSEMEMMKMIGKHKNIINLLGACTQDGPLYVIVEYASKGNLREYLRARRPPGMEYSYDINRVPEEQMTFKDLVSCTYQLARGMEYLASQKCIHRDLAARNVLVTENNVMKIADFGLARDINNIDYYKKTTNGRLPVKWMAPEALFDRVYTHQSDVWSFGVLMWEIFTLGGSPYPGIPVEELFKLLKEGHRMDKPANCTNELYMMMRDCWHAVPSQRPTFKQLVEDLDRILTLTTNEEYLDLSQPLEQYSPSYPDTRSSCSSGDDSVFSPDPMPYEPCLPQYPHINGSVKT

IC50 [nM]	SMILES
100 to 1000	C=CC(=O)N1C[C@@H](n2nc(C#Cc3ccc4c(cnn4C)c3)c3c(N)nccc32)C[C@@H]1COC [Example 35, 1-[(2R,4S)-4-[4-amino-3-[2-(1-methylindazol-5-yl)ethynyl]pyrazolo[4,3-c]pyridin-1-yl]-2-(methoxymethyl)pyrrolidin-1-yl]prop-2-en-1-one]
≤ 100	C=CC(=O)N1C[C@@H](n2nc(C#Cc3cc4nc(C)n(C(F)F)c4cc3Cl)c3c(N)ncnc32)C[C@@H]1COC [Example 129, 1-[(2R,4S)-4-(4-Amino-3-{2-[6-chloro-1-(difluoromethyl)-2-methyl-1,3-benzodiazol-5-yl]ethynyl}pyrazolo[3,4-d]pyrimidin-1-yl)-2-(methoxymethyl)pyrrolidin-1-yl]prop-2-en-1-one]
≤ 100	C=CC(=O)N1C[C@@H](n2nc(C#Cc3cc4ncn(CC)c4cc3Cl)c3c(N)nccc32)C[C@@H]1C [Example 169, 1-((2S,4S)-4-(4-amino-3-((6-chloro-1-ethyl-1H-benzo[d]imidazol-5-yl)ethynyl)-1H-pyrazolo[4,3-c]pyridin-1-yl)-2-methylpyrrolidin-1-yl)prop-2-en-1-one]
≤ 100	C=CC(=O)N1C[C@@H](n2nc(C#Cc3cc4ncn(C(F)F)c4cc3F)c3c(N)nccc32)C[C@@H]1COC [Example 83, 1-[(2R,4S)-4-(4-Amino-3-[2-[1-(difluoromethyl)-6-fluoro-1,3-benzodiazol-5-yl]ethynyl]pyrazolo[4,3-c]pyridin-1-yl)-2-(methoxymethyl)pyrrolidin-1-yl]prop-2-en-1-one]
≤ 100	C=CC(=O)N1CC[C@H](n2nc(C#Cc3cc4ncn(C)c4c(F)c3F)c3c(N)nccc32)C1 [Example 156, 1-[(3S)-3-{4-Amino-3-[2-(6,7-difluoro-1-methyl-1,3-benzodiazol-5-yl)ethynyl]pyrazolo[4,3-c]pyridin-1-yl}pyrrolidin-1-yl]prop-2-en-1-one]
≤ 100	C=CC(=O)N1C[C@@H](n2nc(C#Cc3cc4nc(C)n(C)c4cc3Cl)c3c(N)nccc32)C[C@@H]1COC [Example 97, 1-[(2R,4S)-4-[4-Amino-3-[2-(6-chloro-1,2-dimethyl-1,3-benzodiazol-5-yl)ethynyl]pyrazolo[4,3-c]pyridin-1-yl]-2-(methoxymethyl)pyrrolidin-1-yl]prop-2-en-1-one]
≤ 100	C=CC(=O)N1C[C@@H](n2cc(C#Cc3cc4ncn(C5CC5)c4cc3F)c3c(N)ncnc32)C[C@@H]1COC [Example 110, 1-[(2R,4S)-4-[4-Amino-5-[2-(1-cyclopropyl-6-fluoro-1,3-benzodiazol-5-yl)ethynyl]pyrrolo[2,3-d]pyrimidin-7-yl]-2-(methoxymethyl)pyrrolidin-1-yl]prop-2-en-1-one]
≤ 100	C=CC(=O)N1C[C@@H](n2cc(C#Cc3cc4nc(C)[nH]c4cc3Cl)c3c(N)ncnc32)C[C@@H]1COC [Example 89, 1-[(2R,4S)-4-[4-Amino-5-[2-(6-chloro-2-methyl-1H-1,3-benzodiazol-5-yl)ethynyl]pyrrolo[2,3-d]pyrimidin-7-yl]-2-(methoxymethyl)pyrrolidin-1-yl]prop-2-en-1-one]
≤ 100	C=CC(=O)N1C[C@@H](n2nc(C#Cc3c(F)cc4c(ncn4C(F)F)c3F)c3c(N)ncnc32)C[C@@H]1COC [Example 64, 1-[(2R,4S)-4-(4-Amino-3-[2-[1-(difluoromethyl)-4,6-difluoro-1,3-benzodiazol-5-yl]ethynyl]pyrazolo[3,4-d]pyrimidin-1-yl)-2-(methoxymethyl)pyrrolidin-1-yl]prop-2-en-1-one]
≤ 100	C=CC(=O)N1C[C@@H](n2nc(C#Cc3cc4ncn(C)c4c(F)c3Cl)c3c(N)ncnc32)C[C@@H]1CC#N [Example 161, 2-[(2R,4S)-4-{4-Amino-3-[2-(6-chloro-7-fluoro-1-methyl-1,3-benzodiazol-5-yl)ethynyl]pyrazolo[3,4-d]pyrimidin-1-yl}-1-(prop-2-enoyl)pyrrolidin-2-yl]acetonitrile]
≤ 100	C=CC(=O)N1C[C@@H](n2nc(C#Cc3cc4nc(C)n(C)c4c(F)c3Cl)c3c(N)ncnc32)C[C@@H]1COC [Example 125, 1-[(2R,4S)-4-[4-Amino-3-[2-(6-chloro-7-fluoro-1,2-dimethyl-1,3-benzodiazol-5-yl)ethynyl]pyrazolo[3,4-d]pyrimidin-1-yl]-2-(methoxymethyl)pyrrolidin-1-yl]prop-2-en-1-one]
≤ 100	C=CC(=O)N1C[C@@H](n2nc(C#Cc3c(Cl)cc4c(ncn4CC)c3F)c3c(N)nccc32)C[C@@H]1COC [Example 117, 1-[(2R,4S)-4-[4-Amino-3-[2-(6-chloro-1-ethyl-4-fluoro-1,3-benzodiazol-5-yl)ethynyl]pyrazolo[4,3-c]pyridin-1-yl]-2-(methoxymethyl)pyrrolidin-1-yl]prop-2-en-1-one]
≤ 100	C=CC(=O)N1C[C@@H](n2nc(C#Cc3c(F)cc4c(ncn4CC)c3F)c3c(N)nccc32)C[C@@H]1COC [Example 86, 1-[(2R,4S)-4-[4-Amino-3-[2-(1-ethyl-4,6-difluoro-1,3-benzodiazol-5-yl)ethynyl]pyrazolo[4,3-c]pyridin-1-yl]-2-(methoxymethyl)pyrrolidin-1-yl]prop-2-en-1-one]
100 to 1000	C=CC(=O)N1C[C@@H](n2nc(C#Cc3ccc4nn(C)cc4c3)c3c(N)ncnc32)C[C@@H]1COC [Example 41, 1-[(2R,4S)-4-[4-amino-3-[2-(2-methylindazol-5-yl)ethynyl]pyrazolo[3,4-d]pyrimidin-1-yl]-2-(methoxymethyl)pyrrolidin-1-yl]prop-2-en-1-one]
≤ 100	C=CC(=O)N1C[C@@H](n2cc(C#Cc3cc4nc(C)n(C)c4cc3Cl)c3c(N)ncnc32)C[C@@H]1COC [Example 101, 1-[(2R,4S)-4-[4-Amino-5-[2-(6-chloro-1,2-dimethyl-1,3-benzodiazol-5-yl)ethynyl]pyrrolo[2,3-d]pyrimidin-7-yl]-2-(methoxymethyl)pyrrolidin-1-yl]prop-2-en-1-one]
≤ 100	C=CC(=O)N1CC[C@H](n2nc(C#Cc3cc4ncn(C5CC5)c4cc3F)c3c(N)nccc32)C1 [Example 149, 1-[(3S)-3-{4-Amino-3-[2-(1-cyclopropyl-6-fluoro-1,3-benzodiazol-5-yl)ethynyl]pyrazolo[4,3-c]pyridin-1-yl}pyrrolidin-1-yl]prop-2-en-1-one]
≤ 100	C=CC(=O)N1C[C@@H](n2nc(C#Cc3c(Cl)cc4c(nc(C)n4C)c3F)c3c(N)ncnc32)C[C@@H]1COC [Example 102, 1-((2R,4S)-4-(4-Amino-3-((6-chloro-4-fluoro-1,2-dimethyl-1H-benzo[d]imidazol-5-yl)ethynyl)-1H-pyrazolo[3,4-d]pyrimidin-1-yl)-2-(methoxymethyl)pyrrolidin-1-yl)prop-2-en-1-one]
≤ 100	C=CC(=O)N1C[C@@H](n2nc(C#Cc3cc4ncn(C)c4cc3F)c3c(N)ncnc32)C[C@@H]1COC [Example 62, 1-[(2R,4S)-4-[4-Amino-3-[2-(6-fluoro-1-methyl-1,3-benzodiazol-5-yl)ethynyl]pyrazolo[3,4-d]pyrimidin-1-yl]-2-(methoxymethyl)pyrrolidin-1-yl]prop-2-en-1-one]
≤ 100	C=CC(=O)N1C[C@@H](n2nc(C#Cc3cc4ncn(C5CC5)c4cc3F)c3c(N)ncnc32)C[C@@H]1COC [Example 108, 1-[(2R,4S)-4-[4-Amino-3-[2-(1-cyclopropyl-6-fluoro-1,3-benzodiazol-5-yl)ethynyl]pyrazolo[3,4-d]pyrimidin-1-yl]-2-(methoxymethyl)pyrrolidin-1-yl]prop-2-en-1-one]
